Patent US12077503B2, “Substituted cyclic amides and their use as herbicides” (FMC CORPORATION, priority 2015, dated 2024)

Key:
Assay in all cases: Test C preemergence
Assay type in all cases: in vivo
corn (Zea mays) = details: for Plant response rating, Corn: scale 0 to 100, 0 no effect, 100 complete control
In short: (§1)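 Assessment: visual, 13–15 d after treatment, 0 (no effect) to 100 (complete control) relative to controls. Treatment: preemergence to seeds in loam-sand soil, or postemergence to 1- to 4-leaf plants in peat-based medium. Formulation: non-phytotoxic solvent mixture with surfactant.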

[1] = test system: lambsquarters (Chenopodium album); details: for Plant response rating, Lambsquarters: scale 0 to 100, 0 no effect, 100 complete control
In short: as §1

[2] = test system: blackgrass (Alopecurus myosuroides); details: for Plant response rating, Blackgrass: scale 0 to 100, 0 no effect, 100 complete control
In short: as §1

[3] = test system: waterhemp (common waterhemp, Amaranthus rudis); details: for Plant response rating, Waterhemp: scale 0 to 100, 0 no effect, 100 complete control
In short: as §1

[4] = test system: johnsongrass (Sorghum halepense); details: for Plant response rating, Johnsongrass: scale 0 to 100, 0 no effect, 100 complete control
In short: as §1

[5] = test system: pigweed (Amaranthus retroflexus); details: for Plant response rating, Pigweed: scale 0 to 100, 0 no effect, 100 complete control
In short: as §1

[6] = test system: ragweed (common ragweed, Ambrosia elatior); details: for Plant response rating, Ragweed: scale 0 to 100, 0 no effect, 100 complete control
In short: as §1

[7] = test system: crabgrass, large (large crabgrass, Digitaria sanguinalis); details: for Plant response rating, Crabgrass, Large: scale 0 to 100, 0 no effect, 100 complete control
In short: as §1

[8] = test system: foxtail, giant (giant foxtail, Setaria faberii); details: for Plant response rating, Foxtail, Giant: scale 0 to 100, 0 no effect, 100 complete control
In short: as §1

[9] = test system: nutsedge, yellow (yellow nutsedge, Cyperus esculentus); details: for Plant response rating, Nutsedge, Yellow: scale 0 to 100, 0 no effect, 100 complete control
In short: as §1

[10] = test system: morningglory (Ipomoea coccinea); details: for Plant response rating, Morningglory: scale 0 to 100, 0 no effect, 100 complete control
In short: as §1

[11] = test system: velvetleaf (Abutilon theophrasti); details: for Plant response rating, Velvetleaf: scale 0 to 100, 0 no effect, 100 complete control
In short: as §1

soybean (Glycine max) = details: for Plant response rating, Soybean: scale 0 to 100, 0 no effect, 100 complete control
In short: as §1

[12] = test system: barnyardgrass (Echinochloa crus-galli); details: for Plant response rating, Barnyardgrass: scale 0 to 100, 0 no effect, 100 complete control
In short: as §1

[13] = test system: ryegrass, Italian (Italian ryegrass, Lolium multiflorum); details: for Plant response rating, Ryegrass, Italian: scale 0 to 100, 0 no effect, 100 complete control
In short: as §1

[14] = test system: oilseed rape (Brassica napus); details: for Plant response rating, Oilseed Rape: scale 0 to 100, 0 no effect, 100 complete control
In short: as §1

[15] = test system: Galium (catchweed bedstraw, Galium aparine); details: for Plant response rating, Galium: scale 0 to 100, 0 no effect, 100 complete control
In short: as §1

[16] = test system: wheat (winter wheat, Triticum aestivum); details: for Plant response rating, Wheat: scale 0 to 100, 0 no effect, 100 complete control
In short: as §1

[17] = 31 g ai/ha, 0 is no effect, 100 is complete control

Question: With `CN1CC(c2cccc(OC(F)F)c2)C(C(=O)Nc2ccc(F)cc2F)C1=O` (stereo not drawn) [Compound 617] as the molecule, how does the “Plant response rating (scale of 0 to 100), Corn” value (corn (Zea mays); [17]) read?
Answer: 0

Question: And the “Plant response rating, Corn” value (corn (Zea mays); 62 g ai/ha)?
Answer: 40

Question: And the “Plant response rating, Corn” value (corn (Zea mays); 125 g ai/ha)?
Answer: 75

Question: And the “Plant response rating, Corn” value (corn (Zea mays); 250 g ai/ha)?
Answer: 80

Question: And the “Plant response rating (scale of 0 to 100), Lambsquarters” value [1, 17]?
Answer: 30

Question: And the “Plant response rating, Lambsquarters” value ([1]; 62 g ai/ha)?
Answer: 55

Question: What about the “Plant response rating, Lambsquarters” value ([1]; 125 g ai/ha) of the same molecule?
Answer: 70

Question: And the “Plant response rating, Lambsquarters” value ([1]; 250 g ai/ha)?
Answer: 80

Question: What about the “Plant response rating (scale of 0 to 100), Blackgrass” value [2, 17] of the same molecule?
Answer: 20

Question: What about the “Plant response rating, Blackgrass” value ([2]; 62 g ai/ha) of the same molecule?
Answer: 20

Question: And the “Plant response rating, Blackgrass” value ([2]; 125 g ai/ha)?
Answer: 85

Question: What about the “Plant response rating, Blackgrass” value ([2]; 250 g ai/ha) of the same molecule?
Answer: 90

Question: What about the “Plant response rating (scale of 0 to 100), Waterhemp” value [3, 17] of the same molecule?
Answer: 20

Question: And the “Plant response rating, Waterhemp” value ([3]; 62 g ai/ha)?
Answer: 25

Question: What about the “Plant response rating, Waterhemp” value ([3]; 125 g ai/ha) of the same molecule?
Answer: 70

Question: What about the “Plant response rating, Waterhemp” value ([3]; 250 g ai/ha) of the same molecule?
Answer: 80

Question: And the “Plant response rating (scale of 0 to 100), Johnsongrass” value [4, 17]?
Answer: 25

Question: And the “Plant response rating, Johnsongrass” value ([4]; 62 g ai/ha)?
Answer: 30

Question: And the “Plant response rating, Johnsongrass” value ([4]; 125 g ai/ha)?
Answer: 65

Question: And the “Plant response rating, Johnsongrass” value ([4]; 250 g ai/ha)?
Answer: 75

Question: What about the “Plant response rating (scale of 0 to 100), Pigweed” value [5, 17] of the same molecule?
Answer: 10

Question: What about the “Plant response rating, Pigweed” value ([5]; 62 g ai/ha) of the same molecule?
Answer: 20

Question: And the “Plant response rating, Pigweed” value ([5]; 125 g ai/ha)?
Answer: 45

Question: And the “Plant response rating, Pigweed” value ([5]; 250 g ai/ha)?
Answer: 75

Question: What about the “Plant response rating (scale of 0 to 100), Ragweed” value [6, 17] of the same molecule?
Answer: 10

Question: What about the “Plant response rating, Ragweed” value ([6]; 62 g ai/ha) of the same molecule?
Answer: 10

Question: What about the “Plant response rating, Ragweed” value ([6]; 125 g ai/ha) of the same molecule?
Answer: 40

Question: And the “Plant response rating, Ragweed” value ([6]; 250 g ai/ha)?
Answer: 70

Question: What about the “Plant response rating (scale of 0 to 100), Crabgrass, Large” value [7, 17] of the same molecule?
Answer: 95

Question: What about the “Plant response rating, Crabgrass, Large” value ([7]; 62 g ai/ha) of the same molecule?
Answer: 95

Question: What about the “Plant response rating, Crabgrass, Large” value ([7]; 125 g ai/ha) of the same molecule?
Answer: 100

Question: And the “Plant response rating, Crabgrass, Large” value ([7]; 250 g ai/ha)?
Answer: 100

Question: And the “Plant response rating (scale of 0 to 100), Foxtail, Giant” value [8, 17]?
Answer: 90

Question: And the “Plant response rating, Foxtail, Giant” value ([8]; 62 g ai/ha)?
Answer: 90

Question: What about the “Plant response rating, Foxtail, Giant” value ([8]; 125 g ai/ha) of the same molecule?
Answer: 95

Question: And the “Plant response rating, Foxtail, Giant” value ([8]; 250 g ai/ha)?
Answer: 98

Question: What about the “Plant response rating (scale of 0 to 100), Nutsedge, Yellow” value [9, 17] of the same molecule?
Answer: 0

Question: What about the “Plant response rating, Nutsedge, Yellow” value ([9]; 62 g ai/ha) of the same molecule?
Answer: 0

Question: What about the “Plant response rating, Nutsedge, Yellow” value ([9]; 125 g ai/ha) of the same molecule?
Answer: 20

Question: And the “Plant response rating, Nutsedge, Yellow” value ([9]; 250 g ai/ha)?
Answer: 35

Question: And the “Plant response rating (scale of 0 to 100), Morningglory” value [10, 17]?
Answer: 0

Question: And the “Plant response rating, Morningglory” value ([10]; 62 g ai/ha)?
Answer: 0

Question: And the “Plant response rating, Morningglory” value ([10]; 125 g ai/ha)?
Answer: 25

Question: What about the “Plant response rating, Morningglory” value ([10]; 250 g ai/ha) of the same molecule?
Answer: 40

Question: And the “Plant response rating (scale of 0 to 100), Velvetleaf” value [11, 17]?
Answer: 10

Question: And the “Plant response rating, Velvetleaf” value ([11]; 62 g ai/ha)?
Answer: 10

Question: What about the “Plant response rating, Velvetleaf” value ([11]; 125 g ai/ha) of the same molecule?
Answer: 20

Question: What about the “Plant response rating, Velvetleaf” value ([11]; 250 g ai/ha) of the same molecule?
Answer: 45

Question: What about the “Plant response rating (scale of 0 to 100), Soybean” value (soybean (Glycine max); [17]) of the same molecule?
Answer: 0

Question: What about the “Plant response rating, Soybean” value (soybean (Glycine max); 62 g ai/ha) of the same molecule?
Answer: 10

Question: What about the “Plant response rating, Soybean” value (soybean (Glycine max); 125 g ai/ha) of the same molecule?
Answer: 0

Question: What about the “Plant response rating, Soybean” value (soybean (Glycine max); 250 g ai/ha) of the same molecule?
Answer: 20

Question: And the “Plant response rating (scale of 0 to 100), Barnyardgrass” value [12, 17]?
Answer: 85

Question: What about the “Plant response rating, Barnyardgrass” value ([12]; 62 g ai/ha) of the same molecule?
Answer: 90

Question: What about the “Plant response rating, Barnyardgrass” value ([12]; 125 g ai/ha) of the same molecule?
Answer: 95

Question: And the “Plant response rating, Barnyardgrass” value ([12]; 250 g ai/ha)?
Answer: 95

Question: And the “Plant response rating (scale of 0 to 100), Ryegrass, Italian” value [13, 17]?
Answer: 10

Question: And the “Plant response rating, Ryegrass, Italian” value ([13]; 62 g ai/ha)?
Answer: 45

Question: And the “Plant response rating, Ryegrass, Italian” value ([13]; 125 g ai/ha)?
Answer: 50

Question: And the “Plant response rating, Ryegrass, Italian” value ([13]; 250 g ai/ha)?
Answer: 90

Question: And the “Plant response rating (scale of 0 to 100), Oilseed Rape” value [14, 17]?
Answer: 30

Question: And the “Plant response rating, Oilseed Rape” value ([14]; 62 g ai/ha)?
Answer: 85

Question: What about the “Plant response rating, Oilseed Rape” value ([14]; 125 g ai/ha) of the same molecule?
Answer: 90

Question: What about the “Plant response rating, Oilseed Rape” value ([14]; 250 g ai/ha) of the same molecule?
Answer: 90

Question: What about the “Plant response rating (scale of 0 to 100), Galium” value [15, 17] of the same molecule?
Answer: 0

Question: What about the “Plant response rating, Galium” value ([15]; 62 g ai/ha) of the same molecule?
Answer: 85

Question: What about the “Plant response rating, Galium” value ([15]; 125 g ai/ha) of the same molecule?
Answer: 85

Question: And the “Plant response rating, Galium” value ([15]; 250 g ai/ha)?
Answer: 85

Question: What about the “Plant response rating (scale of 0 to 100), Wheat” value [16, 17] of the same molecule?
Answer: 0

Question: What about the “Plant response rating, Wheat” value ([16]; 62 g ai/ha) of the same molecule?
Answer: 15

Question: And the “Plant response rating, Wheat” value ([16]; 125 g ai/ha)?
Answer: 45

Question: And the “Plant response rating, Wheat” value ([16]; 250 g ai/ha)?
Answer: 80
